Source: US5763460A, “N-(piperidinyl-1-alkyl)-substituted cyclohexane carboxylic acid amides as 5-htia receptor antagonists” (John Wyeth & Brother Limited, priority 1993, dated 1998)

What was measured:
5-HT1A receptor [1] = target: T1, 5-HT1A receptor (Cavia porcellus, UniProt A0A286Y074); assay: 5-HT1A receptor antagonism: antagonism of 5-carboxamidotryptamine in the guinea-pig ileum in vitro
T1 construct: guinea-pig ileum in vitro; from tissue; host or cells: guinea-pig ileum
T1 sequence (A0A286Y074 1-421): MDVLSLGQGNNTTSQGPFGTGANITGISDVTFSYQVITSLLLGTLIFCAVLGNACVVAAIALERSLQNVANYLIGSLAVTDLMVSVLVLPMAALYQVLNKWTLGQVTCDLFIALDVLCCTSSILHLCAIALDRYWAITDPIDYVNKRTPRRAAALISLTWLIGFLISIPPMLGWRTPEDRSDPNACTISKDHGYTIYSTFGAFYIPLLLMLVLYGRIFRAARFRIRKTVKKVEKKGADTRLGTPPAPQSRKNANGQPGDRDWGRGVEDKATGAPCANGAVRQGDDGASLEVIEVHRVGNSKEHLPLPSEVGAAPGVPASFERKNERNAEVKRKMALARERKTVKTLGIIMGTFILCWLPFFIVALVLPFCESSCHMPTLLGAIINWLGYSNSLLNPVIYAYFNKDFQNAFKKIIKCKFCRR
Experimental: The compounds are tested for 5-HT1A receptor antagonism activity in a test involving the antagonism of 5-carboxamidotryptamine in the guinea-pig ileum in vitro (based upon the procedure of Fozard et al, Br J Pharmac, 1985, 86, 601 P).

5-HT1A receptor [2] = target: T2, 5-HT1A receptor (Rattus norvegicus, UniProt P19327); assay: 5-HT1A receptor binding activity in rat hippocampal membrane homogenate; conditions: method of Alexander and Wood
T2 construct: rat hippocampal membrane homogenate; from tissue; host or cells: rat hippocampal membrane homogenate
T2 sequence (P19327 1-422): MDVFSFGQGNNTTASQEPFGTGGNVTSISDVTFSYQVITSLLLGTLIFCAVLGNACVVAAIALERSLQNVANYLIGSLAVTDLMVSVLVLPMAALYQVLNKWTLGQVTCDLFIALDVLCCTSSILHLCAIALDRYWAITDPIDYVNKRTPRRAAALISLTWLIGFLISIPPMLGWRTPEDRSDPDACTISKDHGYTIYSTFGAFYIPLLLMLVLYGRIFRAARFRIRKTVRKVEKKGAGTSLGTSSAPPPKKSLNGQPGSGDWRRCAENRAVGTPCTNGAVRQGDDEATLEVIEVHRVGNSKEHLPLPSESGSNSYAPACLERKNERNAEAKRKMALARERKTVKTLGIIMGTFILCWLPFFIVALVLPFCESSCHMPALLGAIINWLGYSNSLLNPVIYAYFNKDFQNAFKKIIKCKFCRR
Experimental: The compounds of the invention are tested for 5-HT1A receptor binding activity in rat hippocampal membrane homogenate by the method of B. S. Alexander and M. D. Wood, J Pharm Pharmacol. 1988, 40, 888-891.

α1 site = assay: affinity for the α1 site; format: binding; conditions: procedure of A. L. Marrow et al

## COc1ccccc1C1CCN([C@H](C)CN(C(=O)C2CCCCC2)c2ccccn2)CC1 [Example 1, (R)-N-(2-(1-(4-(2-Methoxyphenyl)piperidinyl))propyl)-N-(2-pyridyl)cyclohexanecarboxamide]
5-HT1A receptor [1]
  pA2: 7.9
5-HT1A receptor [2]
  IC50: 3.5 nM
α1 site
  IC50: 858 nM
